Assay results taken from patent publication US20250368633A1, “AZEPINE FUSED RING COMPOUND AS RIPK1 INHIBITOR AND USE THEREOF” (ARTIVILA BIOPHARMA, priority 2022, published 2025).

Experiments:
U937 cells [1] = assay: EC50 of necroptosis inhibition in U937 cells (TSZ-induced, CellTiter-Glo); format: cell-based; conditions: Homo sapiens, U-937; TSZ (hTNF-α, SM-164, Z-VAD-FMK) 20 hours; 10 concentration points; read-out: EC50 intervals of necroptosis inhibition in U937 cells
Description: (§1) The biological activity of RIPK1 inhibitors was further evaluated in the inhibition of necroptosis in U937 cells. U937 cell line was purchased from Huatuo Biotechnology and stored in liquid nitrogen. U937 cells were revived before the experiment and cultured in RPMI-1640 medium (supplemented with 10% fetal bovine serum, 100 U/mL penicillin and 100 μg/mL streptomycin) at 37° C., 5% CO2. The activity was further evaluated by the cellular ATP level detected by the Promega CellTiter-Glo 2.0 Assay cell viability assay kit (Catalog No.: G9242).
The experimental method was briefly described as below. U937 cells in the logarithmic growth phase were collected by centrifugation. Cells were diluted to the cell density of 5×10^5 cells/mL with RPMI 1640 medium (supplemented with 10% fetal bovine serum, 100 U/mL penicillin and 100 μg/mL streptomycin). Cell suspension was added to a white sterile 384-well cell culture plate at 15 μL/well. The test compound was dissolved in DMSO to prepare a 10 mM stock solution. The compound was serially diluted with culture medium at a ratio of 1:3, for a total of 10 concentration points. A control with the same DMSO volume was set, with two replicates for each concentration. The diluted compound was added to the 384-well cell culture plate containing cells at 2.5 μL/well and incubated at 37° C., 5% CO2 for 15 minutes. Z-VAD-FMK (Biyuntian, catalog number: C1202-5 mg) was dissolved in DMSO to prepare a 20 mM stock solution. SM-164 (Biyuntian, catalog number: SC0114-10 mM) was dissolved in DMSO to prepare a 10 mM stock solution and diluted to 0.1 mM. hTNF-α (Sino Biological Inc., catalog number: 10602-HNAE) was dissolved in sterile water to 10 μg/mL. RPMI 1640 medium (supplemented with 10% fetal bovine serum, 100 U/mL penicillin and 100 μg/mL streptomycin) was used to prepare the TSZ mixture, containing 133.3 μM Z-VAD-FMK, 33.3 ng/ml hTNF-α and 0.3 μM SM-164. After 15 minutes' coculture of compounds and cells, 7.5 μL of TSZ mixture was added to each well, mixed evenly, and cultured at 37° C., 5% CO2 for 20 hours. After 20 hours, the culture plate was removed and placed at room temperature for 30 minutes. Then, 10 μL of CellTiter-Glo reagent pre-equilibrated at room temperature was added to each well and incubated. After 10 minutes' incubation at room temperature in the dark, the chemiluminescence were measured using a microplate reader. The inhibition rate was calculated as Inh %=(1−(no TSZ-TSZ & compound)/(no TSZ-TSZ))×100. The EC50 was obtained by fitting the nonlinear regression curve log [inhibitor] vs. response−variable slope (four parameters) in GraphPad Prism.

U937 cells [2] = assay: Inhibition rate of compound (1 μM) on necroptosis of U937 cells (TSZ-induced, CellTiter-Glo); format: cell-based; conditions: TSZ (hTNF-α, SM-164, Z-VAD-FMK) 20 hours
Description: as §1
The experimental method was briefly described as below. U937 cells in the logarithmic growth phase were collected by centrifugation. Cells were diluted at the density of 5×10^5 cells/mL with RPMI 1640 medium (supplemented with 10% fetal bovine serum, 100 U/mL penicillin and 100 μg/mL streptomycin). The cell suspension was added to a white sterile 384-well cell culture plate at 15 μL/well. The test compound was dissolved in DMSO to prepare a 10 mM stock solution and diluted to 10 μM with culture medium. At the same time, a control with the same DMSO volume was set up. Two replicates were added for each concentration. The diluted compound was added to the 384-well cell culture plate containing cells at 2.5 µL/well and incubated at 37° C., 5% CO2 for 15 minutes. Z-VAD-FMK (Biyuntian, catalog number: C1202-5 mg) was dissolved in DMSO to prepare a 20 mM stock solution. SM-164 (Biyuntian, catalog number: SC0114-10 mM) was dissolved in DMSO to prepare a 10 mM stock solution and diluted to 0.1 mM. hTNF-α (Sino Biological Inc., catalog number: 10602-HNAE) was dissolved in sterile water to 10 μg/mL. RPMI 1640 medium (supplemented with 10% fetal bovine serum, 100 U/mL penicillin and 100 μg/mL streptomycin) was used to prepare the TSZ mixture, containing 133.3 μM Z-VAD-FMK, 33.3 ng/ml hTNF-α and 0.3 μM SM-164. After 15 minutes' coculture of compounds and cells, 7.5 μL of TSZ mixture was added to each well, mixed evenly, and cultured at 37° C., 5% CO2 for 20 hours. After 20 hours, the culture plate was removed and placed at room temperature for 30 minutes. 10 μL of CellTiter-Glo reagent pre-equilibrated at room temperature was added to each well and incubated for 10 minutes from light. The chemiluminescence was read by a microplate reader. The inhibition rate was calculated as Inh %=(1−(no TSZ-TSZ & compound)/(no TSZ-TSZ))×100.

RIPK1 kinase = biological target: T1, RIPK1 kinase (Homo sapiens, UniProt Q13546); assay: In vitro RIPK1 kinase activity assay (ADP-Glo), inhibition by compounds at 1 μM; format: biochemical; conditions: compound 1 μM; ATP 10 μM; MBP substrate 100 μg/mL; read-out: RIPK1 kinase activity inhibition rate range
T1 construct: purchased Promega VA7593
T1 sequence (Q13546 1-671): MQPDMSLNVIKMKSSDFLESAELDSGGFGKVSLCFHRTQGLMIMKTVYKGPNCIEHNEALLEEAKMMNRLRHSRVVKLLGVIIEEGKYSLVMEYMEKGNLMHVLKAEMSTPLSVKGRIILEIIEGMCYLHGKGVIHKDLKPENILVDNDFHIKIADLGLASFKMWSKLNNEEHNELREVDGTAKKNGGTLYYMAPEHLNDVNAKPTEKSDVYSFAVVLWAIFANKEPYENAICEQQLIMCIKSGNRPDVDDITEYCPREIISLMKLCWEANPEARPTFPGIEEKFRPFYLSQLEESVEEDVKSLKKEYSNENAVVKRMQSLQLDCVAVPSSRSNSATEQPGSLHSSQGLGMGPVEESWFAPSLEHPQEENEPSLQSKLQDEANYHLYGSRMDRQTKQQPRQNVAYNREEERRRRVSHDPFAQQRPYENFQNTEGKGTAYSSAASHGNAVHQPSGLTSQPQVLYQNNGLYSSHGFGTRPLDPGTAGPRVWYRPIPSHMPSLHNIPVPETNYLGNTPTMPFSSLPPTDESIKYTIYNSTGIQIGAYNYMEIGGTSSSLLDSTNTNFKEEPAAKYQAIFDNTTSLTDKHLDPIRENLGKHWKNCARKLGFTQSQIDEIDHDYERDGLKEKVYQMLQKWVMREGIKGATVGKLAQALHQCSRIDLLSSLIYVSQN
Description: RIPK1 kinase activity was assayed using the ADP-Glo assay and RIPK1 kinase reaction system (Promega, catalog number: VA7593). The RIPK1 kinase activity assay was performed according to the Promega kit manual.
The experimental method was briefly described as below. The concentration of RIPK1 kinase in the RIPK1 kinase reaction system was determined by kinase titration and S/B10. Compounds were diluted with 1× kinase buffer D (1% DMSO), and 1 μL of 100 μM compound DMSO stock solution was added to 19 μL 1× kinase buffer D. RIPK1 kinase was diluted with 1× kinase buffer D. 2.5×ATP/substrate was diluted with 1× kinase buffer D. The final concentration of ATP in the kinase reaction system was 10 μM, and the final concentration of MBP substrate was 100 μg/mL. 1 μL of diluted compound and 2 μL of diluted RIPK1 kinase were mixed, incubated at room temperature for 15 minutes, 2 μL of 2.5×ATP/substrate was added, mixed, and incubated at room temperature for 1 hour. 5 μL of ADP-Glo reagent was added to each well and incubated at room temperature for 1 hour. 10 μL of ADP detection reagent was added to each well and incubated at room temperature for another 0.5-1 hour. The chemiluminescent signal was read by a microplate reader and the inhibition rate of kinase activity was calculated.

SMILES	inhibition at 1 µM (RIPK1 kinase) [%]	EC50 (U937 cells [1]) [nM]	Inhibition rate range of compounds (1 μM) on U937 cell necroptosis (U937 cells [2])
CN1C(=O)[C@@H](NC(=O)C(=O)NCCc2ccccc2)COc2ccc(C#Cc3ccncc3)cc21 [Example 12, (S)-N^1-(5-methyl-4-oxo-7-(pyridin-4-ylethynyl)-2,3,4,5-tetrahydrobenzo[b][1,4]oxazepin-3-yl)-N^2-phenethyloxalamide]	≥ 75	< 100	A (A: ≥90%)
C#Cc1ccc2c(c1)N(C)C(=O)[C@@H](NC(=O)C(=O)NCCc1ccccc1)CO2 [Example 20, (S)—N^1-(7-ethynyl-5-methyl-4-oxo-2,3,4,5-tetrahydrobenzo[b][1,4]oxazepin-3-yl)-N^2-phenethyloxalamide]	50 to 74	< 100	A (A: ≥90%)
CN1C(=O)[C@@H](NC(=O)C(=O)NCCc2ccccc2)COc2ccc(C#CC3CCNCC3)cc21 [Example 23, (S)—N^1-(5-methyl-4-oxo-7-(piperidin-4-ylethynyl)-2,3,4,5-tetrahydrobenzo[b][1,4]oxazepin-3-yl)-N^2-phenethyloxalamide]	50 to 74	< 100	A (A: ≥90%)
CN1C(=O)[C@@H](NC(=O)C(=O)NCCc2ccccc2)COc2ccc(C#Cc3cc(F)cc(F)c3)cc21 [Example 27, (S)—N^1-(7-((3,5-difluorophenyl)ethynyl)-5-methyl-4-oxo-2,3,4,5-tetrahydrobenzo[b][1,4]oxazepin-3-yl)-N^2-phenethyloxalamide]	50 to 74	< 100	A (A: ≥90%)
CN1C(=O)[C@@H](NC(=O)C(=O)NCCc2ccccc2)COc2ccc(C#CCOc3ccccc3)cc21 [Example 28, (S)—N^1-(5-methyl-4-oxo-7-(3-phenyloxyprop-1-yn-1-yl)-2,3,4,5-tetrahydrobenzo[b][1,4]oxazepin-3-yl)-N^2-phenethyloxalamide]	≥ 75	< 100	A (A: ≥90%)
C[C@H](O)C#Cc1ccc2c(c1)N(C)C(=O)[C@@H](NC(=O)C(=O)NCCc1ccccc1)CO2 [Example 30, N^1-((S)-7-((S)-3-hydroxybut-1-yn-1-yl)-5-methyl-4-oxo-2,3,4,5-tetrahydrobenzo[b][1,4]oxazepin-3-yl)-N^2-phenethyloxalamide]	50 to 74	100 to 500	A (A: ≥90%)

More lines, main results first:

inhibition at 1 µM (RIPK1 kinase) [%]	SMILES	EC50 (U937 cells [1]) [nM]	Inhibition rate range of compounds (1 μM) on U937 cell necroptosis (U937 cells [2])
≥ 75	CN1C(=O)[C@@H](NC(=O)C(=O)NCCc2ccccc2)COc2ccc(C#Cc3ccccn3)cc21 [Example 14, (S)—N^1-(5-methyl-4-oxo-7-(pyridin-2-ylethynyl)-2,3,4,5-tetrahydrobenzo[b][1,4]oxazepin-3-yl)-N^2-phenethyloxalamide]	< 100	A (A: ≥90%)
≥ 75	CN1C(=O)[C@@H](NC(=O)C(=O)NCCc2ccccc2)COc2ccc(C#Cc3cncnc3)cc21 [Example 15, (S)—N^1-(5-methyl-4-oxo-7-(pyrimidin-5-ylethynyl)-2,3,4,5-tetrahydrobenzo[b][1,4]oxazepin-3-yl)-N^2-phenethyloxalamide]	< 100	A (A: ≥90%)
50 to 74	CN1C(=O)[C@@H](NC(=O)C(=O)NCCc2ccccc2)COc2ccc(C#Cc3cccs3)cc21 [Example 16, (S)—N^1-(5-methyl-4-oxo-7-(thiophen-2-ylethynyl)-2,3,4,5-tetrahydrobenzo[b][1,4]oxazepin-3-yl)-N^2-phenethyloxalamide]	< 100	A (A: ≥90%)
≥ 75	CN1C(=O)[C@@H](NC(=O)C(=O)NCCc2ccccc2)COc2ccc(C#CC3=CCCCC3)cc21 [Example 26, (S)—N^1-(7-(cyclohex-1-en-1-ylethynyl)-5-methyl-4-oxo-2,3,4,5-tetrahydrobenzo[b][1,4]oxazepin-3-yl)-N^2-phenethyloxalamide]	< 100	A (A: ≥90%)
50 to 74	CN1C(=O)[C@@H](NC(=O)C(=O)NCc2ccccc2F)COc2ccc(C#CCCO)cc21 [Example 38, (S)—N^1-(2-fluorobenzyl)-N^2-(7-(4-hydroxybut-1-yn-1-yl)-5-methyl-4-oxo-2,3,4,5-tetrahydrobenzo[b][1,4]oxazepin-3-yl)oxalamide]	100 to 500	A (A: ≥90%)
